# Assay results taken from US9249147B2, “Tyrosine kinase inhibitors” (CHEMBRIDGE CORPORATION, priority 2008, dated 2016).
# “And” between values parts separate entries of the source, which are not always exact repeats. Identical values can stand only once. Like-named read-outs stand apart in the source and are kept apart here.
# Tests used:
# Fer = biological target: T1, Fer (Homo sapiens, UniProt P16591); test: Invitrogen SelectScreen Z-lyte kinase assay, Fer; assay type: biochemical
# T1 construct: purchased Invitrogen
# [1] = Metabolic Stability (liver micros., human), Cerep Study 13170; assay type: in vitro ADME; details: 1.0E−06 M, human liver microsomes
# UConn = test: Cell proliferation inhibition, ALCL line UConn; assay type: cell-based; details: Example 4, least sensitive line; read-out: Proliferation IC50 UConn
# From the text: (§1) Cell proliferation inhibition assays were run for compound (II) with the five target NPM-ALK-dependent ALCL cell lines (Karpas 299, SuDHL-1, JB6, SupM2, UConn) and 12 unrelated cell lines (HEK293, CHO-K1, MCF7, HepG2, H292, H520, H1581, H596, H522, CHA-GO-K1, UMC-11, SK-MES1). […] The pronounced target cell-killing effect is also observed (molecular mechanisms to be determined).
# hERG = hERG (Homo sapiens, UniProt Q12809); test: hERG standard patch clamp in HEK293 (Cerep ADMET Study 13170); assay type: cell-based; details: 1 μM
# Experimental: The cardiac potassium channel, hERG, is responsible for the rapid delayed rectifier current (IKr) in the human ventricle. Inhibition of IKr is the most common cause of cardiac action potential prolongation by noncardiac drugs. Increased action potential duration causes prolongation of the QT interval that has been associated with a dangerous ventricular arrhythmia, torsade de pointer.
# Compound (II) was initially tested at 1 μM concentration using a standard patch clamp protocol (Cerep ADMET Study 13170). The hERG channel was expressed in a human embryonic kidney (HEK293) cell line that lacks endogenous hERG channels. […] We have retested compound (II) in hERG assay in a range of lower concentrations to estimate IC50 of hERG inhibition more precisely (Qpatch 16 automated whole-cell patch clamp protocol in CHO-K1 cell line stably expressing hERG, Cerep hERG Study 13292). […] This kind of potency in hERG inhibition should not represent a significant clinical problem since the high degree of hERG inhibition would occur only at the compound concentrations above the expected therapeutic levels.
# CYP2C9 = biological target: T2, CYP2C9 (Homo sapiens, UniProt P11712); test: CYP2C9 Inhibition (recombinant, MFC substrate); assay type: in vitro ADME
# T2 construct: purchased Cerep (contract assay, ADMET Study 13170)
# [2] = test system: non-ALKdependent cell lines; test: Cell proliferation inhibition, non-ALK-dependent control cell lines; assay type: cell-based; details: 12 unrelated cell lines; read-out: Lowest IC50s for non-ALK-dependent cell lines
# From the text: as §1
# [3] = Aqueous Solubility (PBS, pH 7.4); assay type: physicochemical; details: for solubility: pH 7.4, PBS
# Src = biological target: T3, Src (Homo sapiens, UniProt P12931); test: Invitrogen SelectScreen Z-lyte kinase assay, Src; assay type: biochemical
# T3 construct: purchased Invitrogen
# [4] = Caco-2 (TC7) A-B Permeability test (pH 6.5/7.4); details: human
# RET = RET (Homo sapiens, UniProt P07949); test: Invitrogen SelectScreen Z-lyte kinase assay, Ret; assay type: biochemical; parameters: purchased Invitrogen (SelectScreen service); details: 100 μM ATP
# Experimental: (§2) To evaluate selectivity versus other kinases, inhibition of various kinases by compound (II) was determined. In particular, IC50s for TrkA, Jak2, Axl tyrosine kinases were determined using ADP Hunter (DiscoverX) kinase assay. Single point profiling of compound (II) on 50 human tyrosine kinases and 10 Ser-Thr kinases was done at Upstate/Millipore by radiometric assay. […] The subset of the 520 kinases in the human kinome that were tested was strategically selected to cover most of the therapeutically relevant tyrosine kinases and to represent major branches of serine-threonine kinases.
# (§3) Compound (II) was a multitargeted tyrosine kinase (TK) inhibitor with a distinct pattern of inhibition focused on ALK, Trk family, Ros and Ret kinases. Invitrogen SelectScreen (Z-lyte assay) produced the following IC5O values for this set of kinases: ALK 9.75 nM, TrkA 1.5 nM, TrkB 1.4 nM, TrkC 1.8 nM, Ret 7.1 nM, Ros 1.8 nM (all measured at 100 μM ATP). […] About 70% of the 50 TKs tested have selectivity in excess of 50-fold for ALK and higher for Ret, Ros and Trk family members.
# CYP2D6 = biological target: T4, CYP2D6 (Homo sapiens, UniProt P10635); test: CYP2D6 Inhibition (recombinant, MFC substrate); assay type: in vitro ADME
# T4 construct: purchased Cerep (contract assay, ADMET Study 13170)
# ALK = ALK (Homo sapiens, UniProt Q9UM73); test: Biochemical ALK inhibition (ADP Hunter, radiometric, Z-lyte); parameters: purchased DiscoveRx (ADP Hunter kit); Upstate/Millipore; Invitrogen
# Experimental: Compound (II) (also labeled as CRL241 in some of the figures) was tested using several diverse assay technologies utilizing common assay readouts such as ADP generation detection and FRET or radiolabel-based measurement of phosphate incorporation in the substrate.
# Biochemical potency of ALK inhibition (IC50) for compound (II) was determined in multiple experiments using a commercial ADP detection assay (ADP Hunter, DiscoveRx), and in radiometric (Upstate/Millipore) or FRET based fluorimetric (Z-lyte, Invitrogen) assays.
# TrkC = biological target: T5, TrkC (Homo sapiens, UniProt Q16288); test: Invitrogen SelectScreen Z-lyte kinase assay, TrkC; assay type: biochemical; details: 100 μM ATP
# T5 construct: purchased Invitrogen (SelectScreen service)
# Experimental: as §2, §3
# 10 Ser-Thr kinases = test: Single point radiometric profiling on Ser-Thr kinases (Upstate/Millipore); assay type: biochemical; details: 50 nM compound
# Experimental: as §2
# T2 sequence (P11712 whole entry): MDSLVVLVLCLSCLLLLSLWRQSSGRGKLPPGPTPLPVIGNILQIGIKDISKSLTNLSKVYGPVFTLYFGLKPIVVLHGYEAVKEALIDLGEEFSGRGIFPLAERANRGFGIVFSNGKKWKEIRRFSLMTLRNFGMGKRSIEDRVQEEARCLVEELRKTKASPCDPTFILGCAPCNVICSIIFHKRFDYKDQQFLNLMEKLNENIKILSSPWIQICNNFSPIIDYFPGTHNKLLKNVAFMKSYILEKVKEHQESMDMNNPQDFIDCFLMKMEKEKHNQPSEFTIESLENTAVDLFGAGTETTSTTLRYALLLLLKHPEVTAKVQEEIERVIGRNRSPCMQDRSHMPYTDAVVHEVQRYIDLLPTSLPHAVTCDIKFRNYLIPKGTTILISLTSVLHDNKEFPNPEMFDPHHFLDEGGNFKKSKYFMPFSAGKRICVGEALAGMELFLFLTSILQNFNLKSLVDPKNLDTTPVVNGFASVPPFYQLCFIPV
# T4 sequence (P10635 whole entry): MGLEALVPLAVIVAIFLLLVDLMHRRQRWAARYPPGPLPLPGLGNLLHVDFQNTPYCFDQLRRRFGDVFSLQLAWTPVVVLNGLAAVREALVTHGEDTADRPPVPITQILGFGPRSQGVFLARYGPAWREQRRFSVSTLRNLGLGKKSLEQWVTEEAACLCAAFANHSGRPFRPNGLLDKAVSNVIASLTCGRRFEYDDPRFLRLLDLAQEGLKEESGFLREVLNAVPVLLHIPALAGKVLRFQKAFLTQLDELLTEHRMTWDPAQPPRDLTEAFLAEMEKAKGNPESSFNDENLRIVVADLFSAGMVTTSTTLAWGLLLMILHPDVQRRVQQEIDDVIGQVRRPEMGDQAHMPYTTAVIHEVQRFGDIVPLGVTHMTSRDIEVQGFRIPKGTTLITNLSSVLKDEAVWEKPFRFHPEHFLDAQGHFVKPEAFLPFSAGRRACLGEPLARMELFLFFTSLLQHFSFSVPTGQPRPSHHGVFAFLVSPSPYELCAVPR
# ALK, sequence (Q9UM73 19-1620): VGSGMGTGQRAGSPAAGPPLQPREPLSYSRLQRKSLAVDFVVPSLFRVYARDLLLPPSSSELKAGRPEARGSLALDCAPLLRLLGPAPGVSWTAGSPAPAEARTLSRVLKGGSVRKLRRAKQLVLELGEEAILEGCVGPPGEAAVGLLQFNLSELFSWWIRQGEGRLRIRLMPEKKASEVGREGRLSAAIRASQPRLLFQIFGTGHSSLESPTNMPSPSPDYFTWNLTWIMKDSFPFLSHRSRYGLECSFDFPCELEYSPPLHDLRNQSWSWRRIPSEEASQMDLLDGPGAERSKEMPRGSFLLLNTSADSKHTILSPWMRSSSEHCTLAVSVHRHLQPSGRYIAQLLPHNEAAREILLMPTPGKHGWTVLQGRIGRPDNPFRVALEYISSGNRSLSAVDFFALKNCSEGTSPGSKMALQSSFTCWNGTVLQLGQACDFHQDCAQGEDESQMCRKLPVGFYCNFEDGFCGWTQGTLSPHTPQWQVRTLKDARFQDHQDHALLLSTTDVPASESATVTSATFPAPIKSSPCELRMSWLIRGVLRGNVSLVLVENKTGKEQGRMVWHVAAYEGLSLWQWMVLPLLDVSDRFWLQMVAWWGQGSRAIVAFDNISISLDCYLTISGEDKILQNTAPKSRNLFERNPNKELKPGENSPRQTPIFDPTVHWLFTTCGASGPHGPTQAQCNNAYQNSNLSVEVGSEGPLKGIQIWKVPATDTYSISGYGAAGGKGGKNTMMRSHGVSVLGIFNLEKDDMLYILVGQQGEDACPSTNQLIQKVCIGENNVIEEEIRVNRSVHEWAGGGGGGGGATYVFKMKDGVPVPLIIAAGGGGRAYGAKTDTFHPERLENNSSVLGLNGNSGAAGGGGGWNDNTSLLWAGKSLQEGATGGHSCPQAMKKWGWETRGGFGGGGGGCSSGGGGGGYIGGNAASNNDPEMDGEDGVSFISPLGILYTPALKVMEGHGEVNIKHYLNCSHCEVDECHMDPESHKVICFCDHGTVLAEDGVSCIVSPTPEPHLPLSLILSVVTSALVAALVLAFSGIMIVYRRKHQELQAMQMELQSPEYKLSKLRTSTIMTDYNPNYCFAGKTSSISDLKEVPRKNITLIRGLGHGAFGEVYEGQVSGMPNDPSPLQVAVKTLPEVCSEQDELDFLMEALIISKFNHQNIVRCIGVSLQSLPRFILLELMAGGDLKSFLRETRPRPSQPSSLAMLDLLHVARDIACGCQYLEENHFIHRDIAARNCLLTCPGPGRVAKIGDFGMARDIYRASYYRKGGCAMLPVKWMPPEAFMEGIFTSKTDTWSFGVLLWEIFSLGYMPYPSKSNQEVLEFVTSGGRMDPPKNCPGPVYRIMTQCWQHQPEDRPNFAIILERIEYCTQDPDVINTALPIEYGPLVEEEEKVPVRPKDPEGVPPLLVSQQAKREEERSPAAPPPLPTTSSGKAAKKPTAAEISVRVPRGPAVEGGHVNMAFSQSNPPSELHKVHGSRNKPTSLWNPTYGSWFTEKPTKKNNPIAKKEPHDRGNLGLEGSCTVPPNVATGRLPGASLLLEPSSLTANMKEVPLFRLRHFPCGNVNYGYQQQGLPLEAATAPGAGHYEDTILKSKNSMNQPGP
# T1 sequence (P16591 whole entry): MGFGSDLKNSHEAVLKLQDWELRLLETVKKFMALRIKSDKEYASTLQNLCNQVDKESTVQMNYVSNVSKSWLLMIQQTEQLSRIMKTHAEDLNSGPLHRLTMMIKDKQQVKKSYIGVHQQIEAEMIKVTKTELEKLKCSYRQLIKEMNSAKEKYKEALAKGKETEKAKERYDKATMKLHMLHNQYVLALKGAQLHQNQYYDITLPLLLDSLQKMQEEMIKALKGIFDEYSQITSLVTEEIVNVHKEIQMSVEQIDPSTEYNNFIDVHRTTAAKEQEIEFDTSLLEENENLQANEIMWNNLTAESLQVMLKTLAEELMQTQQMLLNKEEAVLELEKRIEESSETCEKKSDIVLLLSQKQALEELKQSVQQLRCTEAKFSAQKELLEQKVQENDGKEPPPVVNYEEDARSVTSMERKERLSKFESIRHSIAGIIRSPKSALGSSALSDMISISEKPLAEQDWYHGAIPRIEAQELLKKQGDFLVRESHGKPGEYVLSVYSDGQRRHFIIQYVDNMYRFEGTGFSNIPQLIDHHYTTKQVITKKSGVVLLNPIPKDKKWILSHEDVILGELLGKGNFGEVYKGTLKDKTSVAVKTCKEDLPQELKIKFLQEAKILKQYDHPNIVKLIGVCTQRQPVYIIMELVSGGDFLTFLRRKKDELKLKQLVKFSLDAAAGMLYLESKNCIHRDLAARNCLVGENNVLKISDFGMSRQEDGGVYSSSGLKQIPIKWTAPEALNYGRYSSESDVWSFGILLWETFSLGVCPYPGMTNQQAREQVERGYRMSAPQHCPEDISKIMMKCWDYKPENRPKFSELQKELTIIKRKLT
# RET, sequence (P07949 29-1114): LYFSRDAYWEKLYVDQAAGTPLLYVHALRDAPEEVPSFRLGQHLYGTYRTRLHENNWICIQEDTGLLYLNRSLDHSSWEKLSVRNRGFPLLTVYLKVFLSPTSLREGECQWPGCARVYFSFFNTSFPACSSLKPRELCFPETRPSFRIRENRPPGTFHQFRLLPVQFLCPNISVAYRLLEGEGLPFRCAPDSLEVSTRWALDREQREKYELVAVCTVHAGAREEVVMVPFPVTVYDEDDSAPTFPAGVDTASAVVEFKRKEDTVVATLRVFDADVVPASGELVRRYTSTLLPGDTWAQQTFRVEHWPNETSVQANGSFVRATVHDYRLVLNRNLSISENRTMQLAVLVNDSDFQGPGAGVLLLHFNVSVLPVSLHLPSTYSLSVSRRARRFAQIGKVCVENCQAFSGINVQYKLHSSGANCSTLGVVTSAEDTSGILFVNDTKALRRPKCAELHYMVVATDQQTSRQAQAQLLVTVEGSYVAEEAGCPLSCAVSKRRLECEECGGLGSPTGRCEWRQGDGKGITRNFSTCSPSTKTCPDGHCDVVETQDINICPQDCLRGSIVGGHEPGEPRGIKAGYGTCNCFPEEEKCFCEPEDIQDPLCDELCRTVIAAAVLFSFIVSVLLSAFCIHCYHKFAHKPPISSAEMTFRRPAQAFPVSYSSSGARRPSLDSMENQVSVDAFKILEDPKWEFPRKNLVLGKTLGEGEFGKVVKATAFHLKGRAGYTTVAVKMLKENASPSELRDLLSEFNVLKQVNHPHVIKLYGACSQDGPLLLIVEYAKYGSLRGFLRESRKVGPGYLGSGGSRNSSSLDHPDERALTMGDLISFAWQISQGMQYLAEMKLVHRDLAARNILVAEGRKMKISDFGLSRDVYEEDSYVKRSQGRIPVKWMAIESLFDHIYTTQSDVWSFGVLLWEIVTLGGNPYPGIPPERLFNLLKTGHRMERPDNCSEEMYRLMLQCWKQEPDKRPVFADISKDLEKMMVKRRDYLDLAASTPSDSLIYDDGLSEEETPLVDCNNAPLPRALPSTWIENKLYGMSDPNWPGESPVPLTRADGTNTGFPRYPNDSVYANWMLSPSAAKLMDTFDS
# T3 sequence (P12931 whole entry): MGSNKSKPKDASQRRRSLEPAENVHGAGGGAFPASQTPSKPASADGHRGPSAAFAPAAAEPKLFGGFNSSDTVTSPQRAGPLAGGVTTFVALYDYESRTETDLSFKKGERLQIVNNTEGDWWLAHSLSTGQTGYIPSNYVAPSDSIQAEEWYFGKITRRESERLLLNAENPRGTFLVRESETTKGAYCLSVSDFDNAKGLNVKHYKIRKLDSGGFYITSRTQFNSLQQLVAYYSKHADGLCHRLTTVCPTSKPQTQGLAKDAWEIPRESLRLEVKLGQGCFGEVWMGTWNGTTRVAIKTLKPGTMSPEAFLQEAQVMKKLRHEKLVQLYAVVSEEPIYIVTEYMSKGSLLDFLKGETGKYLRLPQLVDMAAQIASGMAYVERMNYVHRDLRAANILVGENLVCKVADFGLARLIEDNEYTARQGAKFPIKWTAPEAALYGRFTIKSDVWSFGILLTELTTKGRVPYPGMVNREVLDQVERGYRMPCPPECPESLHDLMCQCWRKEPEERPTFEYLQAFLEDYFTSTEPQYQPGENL
structure (smiles),measurement,setting,value
Cc1ccc(F)cc1C[C@H](C)Nc1cc[nH]c(=O)c1-c1nc2cc3c(cc2[nH]1)C(=O)N(CCN1CCCC1)C3 [compound (II)],IC50,Fer,0.042 µM
same,Mean Parent Remaining,[1]; 1 hr incubation,73%
same,Parent Remaining Mean,[1]; Table 8B,73%
same,Parent Remaining 1st/2nd,"[1]; Table 8B, listed as CRL241",70.3% and 76.4%
same,IC50,UConn,0.03 µM
same,% inhibition of tail current,hERG,50.4%
same,activity at 1 µM,"CYP2C9; human, recombinant CYP2C9, probe MFC, 1.0E−06 M, Table 5B individual results, read-out: CYP2C9 % Inhibition of Control Values, 1st/2nd/3rd",75.8%
same,activity at 5 µM,"CYP2C9; human, recombinant CYP2C9, probe MFC, 5.0E−06 M, Table 5B individual results, read-out: CYP2C9 % Inhibition of Control Values, 1st/2nd/3rd",63.8%
same,inhibition at 1 µM,"CYP2C9; human, recombinant CYP2C9, probe MFC, 1.0E−06 M, read-out: CYP2C9 % Inhibition of Control Values",20%
same,inhibition at 5 µM,"CYP2C9; human, recombinant CYP2C9, probe MFC, 5.0E−06 M, read-out: CYP2C9 % Inhibition of Control Values",41%
same,IC50,CYP2C9; read-out: approximate IC50 CYP2C9,> 5 µM
same,IC50,[2],~2.5 µM
same,Solubility 1st/2nd,"[3]; pH 7.4, 2.0E−04 M, individual data, listed as CRL241",33.81 μm
same,solubility,"[3]; pH 7.4, 2.0E−04 M, Tables 9C, 9D, read-out: Solubility Mean",33.9 µM
same,solubility,"[3]; pH 7.4, 2.0E−04 M, individual data, read-out: Solubility 1st/2nd",34 µM
same,solubility at 24 h,"[3]; pH 7.4, test concentration 2.0E−04 M, 24 hours, RT",34 µM
same,IC50,Src,0.032 µM
same,Papp A→B at 10 µM,"[4]; Caco-2, pH 6.5, Caco-2 (TC7) A-B permeability coefficient, pH 6.5/7.4, 10 μM compound",0.4 ×10⁻⁶ cm/s
same,recovery at 10 µM,"[4]; Caco-2, pH 6.5, Caco-2 recovery, pH 6.5/7.4, 10 μM compound",49%
same,Papp A→B at 10 µM,"[4]; Caco-2, pH 6.5, Mean Permeability, A-B Permeability (TC7, pH 6.5/7.4), test concentration 1.0E−05 M, mean of n = 2",0.4 ×10⁻⁶ cm/s
same,recovery at 10 µM,"[4]; Caco-2, pH 6.5, Mean Recovery, A-B Permeability (TC7, pH 6.5/7.4), test concentration 1.0E−05 M, mean of n = 2",49%
same,Papp A→B at 10 µM,"[4]; Caco-2, pH 6.5, Permeability 1st, A-B Permeability (TC7, pH 6.5/7.4), test concentration 1.0E−05 M, 1st replicate",0.41 ×10⁻⁶ cm/s
same,Papp A→B at 10 µM,"[4]; Caco-2, pH 6.5, Permeability 2nd, A-B Permeability (TC7, pH 6.5/7.4), test concentration 1.0E−05 M, 2nd replicate",0.44 ×10⁻⁶ cm/s
same,recovery at 10 µM,"[4]; Caco-2, pH 6.5, Present Recovery 1st, A-B Permeability (TC7, pH 6.5/7.4), test concentration 1.0E−05 M, 1st replicate",50%
same,recovery at 10 µM,"[4]; Caco-2, pH 6.5, Present Recovery 2nd, A-B Permeability (TC7, pH 6.5/7.4), test concentration 1.0E−05 M, 2nd replicate",47%
same,IC50,RET,0.0071 µM
same,CYP2D6 inhibition,CYP2D6; 1 μM and 5 μM,No inhibition was detected
same,activity at 1 µM,"CYP2D6; human, recombinant CYP2D6, probe MFC, 1.0E−06 M, Table 5B individual results, read-out: CYP2D6 % Inhibition of Control Values, 1st/2nd/3rd",101%
same,activity at 5 µM,"CYP2D6; human, recombinant CYP2D6, probe MFC, 5.0E−06 M, Table 5B individual results, read-out: CYP2D6 % Inhibition of Control Values, 1st/2nd/3rd",84.9%
same,inhibition at 1 µM,"CYP2D6; human, recombinant CYP2D6, probe MFC, 1.0E−06 M, read-out: CYP2D6 % Inhibition of Control Values",2%
same,inhibition at 5 µM,"CYP2D6; human, recombinant CYP2D6, probe MFC, 5.0E−06 M, read-out: CYP2D6 % Inhibition of Control Values",16%
same,IC50,"ALK; ADP Hunter, radiometric and Z-lyte assays, 100 or 200 μM ATP",0.009 to 0.011 µM
same,Selectivity for ALK versus the related IR and IGF1R,ALK; radiometric assay (Upstate/Millipore),10-15 fold
same,IC50,TrkC,0.0018 µM
same,Inhibition of 10 structurally diverse Ser-Thr kinases,10 Ser-Thr kinases,did not cause any significant inhibition
